For four molecules, IC50 results are on record in patent US20080188506A1, “SPIROINDOLINONE DERIVATIVES” (priority 2007, published 2008).

Molecules are shown by their SMILES.

Chain of interaction between p53 and MDM2 proteins (recombinant GST-tagged MDM2 / p53 peptide) (Q00987 whole entry): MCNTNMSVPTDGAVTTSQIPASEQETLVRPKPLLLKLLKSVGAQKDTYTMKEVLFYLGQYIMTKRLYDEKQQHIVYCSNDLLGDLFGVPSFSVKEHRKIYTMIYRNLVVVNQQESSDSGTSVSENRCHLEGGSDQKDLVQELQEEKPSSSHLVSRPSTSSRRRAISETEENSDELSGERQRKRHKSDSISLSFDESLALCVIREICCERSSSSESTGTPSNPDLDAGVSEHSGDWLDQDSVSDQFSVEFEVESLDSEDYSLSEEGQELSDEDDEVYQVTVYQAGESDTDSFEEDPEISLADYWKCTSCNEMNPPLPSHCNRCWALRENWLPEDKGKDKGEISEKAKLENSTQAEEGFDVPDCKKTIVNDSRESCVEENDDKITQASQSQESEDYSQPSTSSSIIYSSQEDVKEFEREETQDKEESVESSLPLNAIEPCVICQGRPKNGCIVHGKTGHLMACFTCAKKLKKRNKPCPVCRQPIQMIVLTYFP

The assay addresses interaction between p53 and MDM2 proteins (recombinant GST-tagged MDM2 / p53 peptide) (Homo sapiens, UniProt Q00987). The assay is described as follows: HTRF assay of inhibition of the p53-MDM2 interaction (GST-MDM2 / biotinylated p53 peptide). As to conditions: 0.2% BSA, 37° C. 1 h. Type of assay: binding. The method, then: The ability of the compounds to inhibit the interaction between p53 and MDM2 proteins was measured by an HTRF (homogeneous time-resolved fluorescence) assay in which recombinant GST-tagged MDM2 binds to a peptide that resembles the MDM2-interacting region of p53 (Lane et al.). Binding of GST-MDM2 protein and p53-peptide (biotinylated on its N-terminal end) is registered by the FRET (fluorescence resonance energy transfer) between Europium (Eu)-labeled anti-GST antibody and streptavidin-conjugated Allophycocyanin (APC).
Test is performed in black flat-bottom 384-well plates (Costar) in a total volume of […] containing:90 nM biotinylate peptide, 160 ng/ml GST-MDM2, 20 nM streptavidin-APC (PerkinElmerWallac), 2 nM Eu-labeled anti-GST-antibody (PerkinElmerWallac), 0.2% bovine serum albumin (BSA), 1 mM dithiothreitol (DTT) and 20 mM […] (TBS) buffer as follows: Add 10 uL of GST-MDM2 (640 ng/ml working solution) in reaction buffer to each well. Add 10 uL diluted compounds (1:5 dilution in reaction buffer) to each well, mix by shaking. Add 20 uL biotinylated p53 peptide (180 nM working solution) in reaction buffer to each well and mix on shaker. Incubate at 37° C. for 1 h. Add 20 uL streptavidin-APC and Eu-anti-GST antibody mixture (6 nM Eu-anti-GST and 60 nM streptavidin-APC working solution) in TBS buffer with 0.2% BSA, shake at room temperature for 30 minutes and read using a TRF-capable plate reader at 665 and 615 nm (Victor 5, Perkin ElmerWallac). If not specified, the reagents were purchased from Sigma Chemical Co.
As usually defined, the IC50 is the midpoint of a concentration-inhibition curve. For `COc1cccc([C@H]2NCC[C@@H](c3cccc(Cl)c3)[C@]23C(=O)Nc2cc(Cl)ccc23)c1` (racemic) [Example 8c, racemic (2′R, 3R, 4′S)-6-chloro-4′-(3-chlorophenyl)-2′-(3-methoxyphenyl) spiro[3H-indole-3,3′-piperidine]-2(1H)-one], the IC50 was determined as 5.21 µM.

In the case of `O=C1Nc2cc(Cl)ccc2[C@]12[C@@H](c1ccccc1C(F)(F)F)NCC[C@H]2c1cccc(Cl)c1` (racemic) [Example 11c], the IC50 is 6.95 µM.

Take `COc1ccc(F)cc1[C@H]1NCC[C@@H](c2cccc(Cl)c2)[C@]12C(=O)Nc1cc(Cl)ccc12` (racemic) [Example 16c, racemic (2′R, 3R, 4′S)-6-chloro-4′-(3-chlorophenyl)-2′-(5-fluoro-2-methoxyphenyl) spiro[3H-indole-3,3′-piperidine]-2(1H)-one]: the IC50 was determined as 2.31 µM.

In the case of `C=C(CC(C)C)[C@H]1n2cnnc2C[C@@H](c2cccc(Cl)c2)[C@]12C(=O)Nc1cc(Cl)ccc12` (racemic) [Example 44h], the half-maximal inhibitory concentration (IC50) is 1.03 µM.
